Measured values taken from patent EP0387762A2, “Medicament with positive inotropic activity, containing a synergistically active mixture consisting of a benzimidazole and a beta-blocker, its preparation and use” (Dr. Karl Thomae GmbH, priority 1989, dated 1990).

Experiments:
[1] = Acute toxicity, p.o., mouse; conditions: in vivo, po, Maus, read-out: LD₅₀ p.o.
Excerpt: (§1) Die erfindungsgemäß einsetzten Verbindungen sind gut verträglich. So weist beispielsweise die Verbindung A folgende akute Toxizitäten auf: […]

[2] = Acute toxicity, i.v., rat; conditions: in vivo, iv, Ratte, read-out: LD₅₀ i.v.
Excerpt: as §1

COc1ccc(-c2nc3ccc(C4=NNC(=O)CC4C)cc3[nH]2)cc1 (stereo not drawn) [Verbindung A, 2-(4-Methoxyphenyl)-5-(5-methyl-3-oxo-4,5-dihydro-2H-6-pyridazinyl)-benzimidazol]
LD50 [1]: 600 mg/kg | LD50 [2]: 72 mg/kg

CC1CC(=O)NN=C1c1ccc2nc(-c3ccc(O)cc3)[nH]c2c1 (stereo not drawn) [Verbindung B, 2-(4-Hydroxyphenyl)-5-(5-methyl-3-oxo-4,5-dihydro-2H-6-pyridazinyl)-benzimidazol]
LD50 [2]: > 100 mg/kg
